According to US6444645B1, “Crosslink-stabilized indolicidin analogs” (The Regents of the University of California, priority 1998, dated 2002):
Like-named read-outs stand apart in the source and are kept apart here.

Tests used:
[1] = test system: Escherichia coli ML35; conditions: 10, 30, 100 or 300 μg/ml in 10 mM PIPES pH 7.4; FIG. 2
Description: (§1) Nutrient-containing agar (or agarose) plates were seeded with E. coli ML35, C. neoformans 271A, S. aureus 207A or C. albicans 16820. […] Following an initial incubation interval of 1 to 4 hr, the well-containing layer was overlayed with enriched (2×normal) solid medium in order to support microbial growth outside the perimeter of inhibition. After overnight incubation at 30° C. to 37° C., the antimicrobial activity was quantitated by measuring the clear zones around each well (zone of inhibition).

[2] = test system: Cryptococcus neoformans 271A; conditions: 10, 30, 100 or 300 μg/ml in 10 mM PIPES pH 7.4; FIG. 3
Description: as §1

[3] = test system: Staphylococcus aureus 207A; conditions: 10, 30, 100 or 300 μg/ml in 10 mM PIPES pH 7.4; FIG. 4
Description: as §1

[4] = test system: Candida albicans 16820; conditions: 10, 30, 100 or 300 μg/ml in 10 mM PIPES pH 7.4; FIG. 5
Description: as §1

[5] = test system: α-chymotrypsin; conditions: α-chymotrypsin 1% by weight, 0.1 M Tris buffer pH 7.7, 37° C., RP-HPLC
[6] = test system: E. coli ML35; conditions: 30 min
Description: (§2) Microbicidal activity was measured by first incubating the target organism with the peptide in 10 mM PIPES buffer (pH 7.4), then plating the suspension to quantitate surviving microorganisms.
(§3) Cultures were grown to mid log phase in an appropriate medium, harvested, washed, and resuspended to 1-2×10^7 colony forming units (CFU) per ml. To conserve peptide, the incubation volume usually was 0.05 ml, with the final cell concentration being 1-2×10^6 CFU/ml. Peptide stock solutions, usually made up in […], were diluted in the incubation buffer to a final concentration of 1 μg/ml to 30 μg/ml, and the incubation was initiated by addition of an appropriate volume of the bacterial or fungal stock suspension to the prewarmed (37° C.) peptide-buffer mixture. E. coli and S. aureus were incubated with peptide for 30 min; C. albicans was incubated for 60 min; and C. neoformans was incubated for 4 hr. Following incubation, 50 μl or 100 μl samples were removed and diluted serially, then plated on nutrient-containing agar plates.

[7] = test system: C. albicans; conditions: 60 min, 10 mM PIPES pH 7.4
Description: as §2, §3

[8] = test system: S. aureus 207A; conditions: 30 min
Description: as §2, §3

[9] = test system: C. neoformans 271A; conditions: 4 hr
Description: as §2, §3

[10] = 10 μg/ml peptide, 10 mM PIPES pH 7.4

Ile-Leu-Pro-Trp-Lys-Trp-Pro-Trp-Trp-Pro-Trp-Arg-Arg-CONH2 [Indol 1-13]
growth inhibition (zone of inhibition) [1]: inhibited the growth of each microorganism tested in a dose dependent manner | growth inhibition (zone of inhibition) [2]: inhibited the growth of each microorganism tested in a dose dependent manner | growth inhibition (zone of inhibition) [3]: inhibited the growth of each microorganism tested in a dose dependent manner | growth inhibition (zone of inhibition) [4]: inhibited the growth of each microorganism tested in a dose dependent manner | time within which all of the peptide was digested [5]: ≤ 6 h | reduction of survival (CFU) [6, 10]: greater than three orders of magnitude | additional killing versus 10 μg/ml ([6]; 30 μg/ml peptide): minimal additional killing | reduction of survival (CFU) ([7]; 10 μg/ml peptide): about two orders of magnitude | reduction of survival (CFU) ([7]; 30 μg/ml peptide): greater than three orders of magnitude | reduction of survival (CFU) [8, 10]: greater than three orders of magnitude | additional killing versus 10 μg/ml ([8]; 30 μg/ml peptide): minimal additional killing | reduction of survival (CFU) [9, 10]: greater than three orders of magnitude | additional killing versus 10 μg/ml ([9]; 30 μg/ml peptide): minimal additional killing
